# Measurements taken from patent US10227331B2 (priority 2015, dated 2019).
# Where two headings read alike, the source gives them in different places.
# What was measured:
# IMP-1 = IMP-1 (Serratia marcescens, UniProt P52699); test: biochemical; assay type: biochemical
# Method in brief: (§1)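 Fluorescence assay, CCF2-FA substrate (cephalosporin core linking 7-hydroxycoumarin to fluorescein); inhibitor + MBL + substrate, 2 h, 25° C. IC50 by 4-parameter fit, semi-log plot.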
# NDM-1 = NDM-1 (Klebsiella pneumoniae, UniProt C7C422); test: biochemical; assay type: biochemical; conditions: CCF2-FA substrate, 2 hours at 25° C; read-out: NDM-1 IC50
# Method in brief: as §1
# VIM-1 = VIM-1 (Pseudomonas aeruginosa (strain ATCC 15692 / DSM 22644 / CIP 104116 / JCM 14847 / LMG 12228 / 1C / PRS 101 / PAO1), UniProt A0A0F7KYQ8); test: biochemical; conditions: CCF2-FA substrate, 2 hours at 25° C
# Method in brief: as §1
# [1] = system: Escherichia coli expressing NDM-1 (CLB30005, CLB30016); assay type: cell-based; conditions: with imipenem 1 μg/ml; 95% inhibition of bacterial growth
# Method in brief: (§2)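 Colonies from overnight 35 °C blood-agar cultures were suspended in saline, diluted 1:100 into 1.1× CAMHB and exposed to test compound with or without imipenem at 1 μg/ml. After 22–24 h at 35 °C, absorbance was read to find the concentration restoring imipenem susceptibility.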
# [2] = system: Klebsiella pneumoniae expressing VIM-1 (IHMA599644); assay type: cell-based; conditions: with imipenem 1 μg/ml; 95% inhibition of bacterial growth
# Method in brief: as §2
# [3] = system: Serratia marcescens expressing IMP-1 (CL5741); assay type: cell-based; conditions: with imipenem 1 μg/ml; 95% inhibition of bacterial growth
# Method in brief: as §2
# [4] = system: P. aeruginosa expressing IMP-1, efflux+ (MB9798); assay type: cell-based, Pseudomonas aeruginosa; conditions: for P. aeruginosa expressing IMP-1, efflux+ (MB9798) MITC95: imipenem at 2 μg/mL, in the presence of a class A, C, D serine β-lactamase inhibitor closely related to relebactam; for Efflux ratio: ratio MITC95 PA_9798/MITC95 PA_9799
# Source text: (§3) The strain background is Pseudomonas aeruginosa PAO1.
# [5] = system: P. aeruginosa expressing IMP-1, efflux− (MB9799); test: Efflux: concentration of MBL inhibitor which restores susceptibility to imipenem; assay type: cell-based, Pseudomonas aeruginosa; conditions: imipenem at 2 μg/mL, in the presence of a class A, C, D serine β-lactamase inhibitor closely related to relebactam
# Source text: as §3
# [6] = CCF2-FA substrate, 2 hours at 25° C, read-out: IMP-1 IC50
# Sequence of IMP-1 (P52699 whole entry, looked up, species assumed): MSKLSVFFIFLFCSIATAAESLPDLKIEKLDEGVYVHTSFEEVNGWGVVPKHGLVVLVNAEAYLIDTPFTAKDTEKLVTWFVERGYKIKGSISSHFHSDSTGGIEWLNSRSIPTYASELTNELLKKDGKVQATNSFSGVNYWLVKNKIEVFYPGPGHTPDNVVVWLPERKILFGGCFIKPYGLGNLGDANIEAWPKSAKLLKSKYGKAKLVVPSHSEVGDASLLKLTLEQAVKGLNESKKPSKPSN
# Sequence of NDM-1 (C7C422 whole entry, looked up, species assumed): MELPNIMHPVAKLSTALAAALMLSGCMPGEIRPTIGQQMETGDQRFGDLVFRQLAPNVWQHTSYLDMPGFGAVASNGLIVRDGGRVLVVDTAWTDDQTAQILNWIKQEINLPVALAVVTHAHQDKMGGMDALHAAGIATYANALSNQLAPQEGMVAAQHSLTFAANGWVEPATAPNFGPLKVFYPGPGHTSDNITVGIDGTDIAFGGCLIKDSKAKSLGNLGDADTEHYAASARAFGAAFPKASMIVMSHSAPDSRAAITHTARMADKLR
Structure (SMILES),IC50 (IMP-1; [6]) [nM],IC50 (NDM-1) [nM],IC50 (VIM-1) [nM],Escherichia coli expressing NDM-1 (CLB30016) MITC95 [1] [µM],Klebsiella pneumoniae expressing VIM-1 (IHMA599644) MITC95 [2] [µM],Serratia marcescens expressing IMP-1 (CL5741) MITC95 [3] [µM],"P. aeruginosa expressing IMP-1, efflux+ (MB9798) MITC95 [4] [µM]",Efflux ratio [4],"P. aeruginosa expressing IMP-1, efflux− (MB9799) MITC95 [5] [µM]",IC50 (IMP-1) [nM]
"NS(=O)(=O)c1c(S(=O)(=O)C2CNC2)ccc(-c2cccc3sc(C(=O)O)nc23)c1-c1nnn[nH]1 [Example 68, 4-(4-(azetidin-3-ylsulfonyl)-3-sulfamoyl-2-(1H-tetrazol-5-yl)phenyl)benzo[d]thiazole-2-carboxylic Acid]",0.356,0.0709,0.256,6.25,12.5,6.25,6.25,2.00,3.125,
"NCCS(=O)(=O)c1ccc(-c2ccc3[nH]c(N)nc3c2)c(-c2nn[nH]n2)c1S(N)(=O)=O [Example 69, 3-(2-amino-1H-benzo[d]imidazol-5-yl)-6-(2-aminoethylsulfonyl)-2-(2H-tetrazol-5-yl)benzenesulfonamide]",2.77,1.25,0.485,0.25,0.8906,0.4453,3.125,7.02,0.4453,
"NCCS(=O)(=O)c1ccc(-c2cccc3nc(N)[nH]c23)c(-c2nn[nH]n2)c1S(N)(=O)=O [Example 70, 3-(2-amino-3H-benzo[d]imidazol-4-yl)-6-(2-aminoethylsulfonyl)-2-(2H-tetrazol-5-yl)benzenesulfonamide]",0.796,0.251,0.37,0.25,0.8906,0.6406,0.4453,1.00,0.4453,
"NCCS(=O)(=O)c1ccc(-c2cccc3ccc(N)nc23)c(-c2nn[nH]n2)c1S(N)(=O)=O [Example 71, 6-(2-aminoethylsulfonyl)-3-(2-aminoquinolin-8-yl)-2-(2H-tetrazol-5-yl)benzenesulfonamide]",0.129,0.115,0.315,0.3906,1.563,0.7813,0.7813,1.00,0.7813,
"NCCS(=O)(=O)c1ccc(-c2ccc(C(F)(F)F)c3sc(N)nc23)c(-c2nn[nH]n2)c1S(N)(=O)=O [Example 72, 3-(2-amino-7-(trifluoromethyl)benzo[d]thiazol-4-yl)-6-(2-aminoethylsulfonyl)-2-(2H-tetrazol-5-yl)benzenesulfonamide]",0.322,0.153,0.286,0.7813,1.563,1.563,3.125,4.00,0.7813,
"NCCS(=O)(=O)c1ccc(-c2cccc3cc(N)ncc23)c(-c2nn[nH]n2)c1S(N)(=O)=O [Example 73, 6-(2-aminoethylsulfonyl)-3-(3-aminoisoquinolin-8-yl)-2-(2H-tetrazol-5-yl)benzenesulfonamide]",0.214,0.109,0.241,0.7813,3.125,3.125,1.563,1.00,1.563,
"NCCS(=O)(=O)c1ccc(-c2cccc3nc(N)oc23)c(-c2nn[nH]n2)c1S(N)(=O)=O [Example 74, 3-(2-aminobenzo[d]oxazol-7-yl)-6-(2-aminoethylsulfonyl)-2-(2H-tetrazol-5-yl)benzenesulfonamide]",,0.096,0.172,0.7813,3.125,1.563,3.125,4.00,0.7813,0.989
"NCCS(=O)(=O)c1ccc(-c2ccc3nc(N)oc3c2)c(-c2nn[nH]n2)c1S(N)(=O)=O [Example 75, 3-(2-aminobenzo[d]oxazol-6-yl)-6-(2-aminoethylsulfonyl)-2-(2H-tetrazol-5-yl)benzenesulfonamide]",0.433,0.5,0.283,1.563,1.563,1.563,6.25,8.00,0.7813,
"NCCS(=O)(=O)c1ccc(-c2cccc3oc(N)nc23)c(-c2nn[nH]n2)c1S(N)(=O)=O [Example 76, 3-(2-aminobenzo[d]oxazol-4-yl)-6-(2-aminoethylsulfonyl)-2-(2H-tetrazol-5-yl)benzenesulfonamide]",,0.148,0.24,0.7813,1.563,0.7813,0.7813,1.00,0.7813,0.258
"NCCS(=O)(=O)c1ccc(-c2ccc3oc(N)nc3c2)c(-c2nn[nH]n2)c1S(N)(=O)=O [Example 77, 3-(2-aminobenzo[d]oxazol-5-yl)-6-(2-aminoethylsulfonyl)-2-(2H-tetrazol-5-yl)benzenesulfonamide]",1.13,1.05,0.385,0.7813,1.563,1.563,6.25,8.00,0.7813,
"NCCS(=O)(=O)c1ccc(-c2cccc3nc(N)sc23)c(-c2nn[nH]n2)c1S(N)(=O)=O [Example 78, 3-(2-aminobenzo[d]thiazol-7-yl)-6-(2-aminoethylsulfonyl)-2-(2H-tetrazol-5-yl)benzenesulfonamide]",0.441,0.0576,0.136,0.7813,2.344,1.172,1.172,1.50,0.7813,
"Cn1c(N)nc2c(-c3ccc(S(=O)(=O)CCN)c(S(N)(=O)=O)c3-c3nn[nH]n3)cccc21 [Example 79, 3-(2-amino-1-methyl-1H-benzo[d]imidazol-4-yl)-6-(2-aminoethylsulfonyl)-2-(2H-tetrazol-5-yl)benzenesulfonamide]",,0.354,0.327,0.25,1.281,0.8906,0.8906,1.39,0.6406,0.241
"Cc1ccc(-c2ccc(S(=O)(=O)CCN)c(S(N)(=O)=O)c2-c2nn[nH]n2)c2nc(N)sc12 [Example 80, 3-(2-amino-7-methylbenzo[d]thiazol-4-yl)-6-(2-aminoethylsulfonyl)-2-(2H-tetrazol-5-yl)benzenesulfonamide]",0.085,0.0508,0.11,1.172,1.563,0.7813,0.7813,1.00,0.7813,
